Data: patent publication US20260240850A1, “Compositions and Methods for Treating MALT1 Associated Diseases” (Rarefied Biosciences, Inc., priority 2023, published 2026)

Key:
[1] = system: Jurkat cells engineered with the E134G, C49Y, or G123D CARD11 gain of function (GOF) mutant; κB-GFP readout of NFκB signaling; test: NF-κB-GFP reporter in Jurkat cells engineered with CARD11 gain of function mutants (Example 6); type: cell-based; conditions: C49Y or G123D CARD11, all three mutants, dose dependent from about 100 nM to 5 μM
Method: Jurkat cells were engineered with the E134G, C49Y, or G123D CARD11 gain of function (GOF) mutant. The Jurkat cells included a reporter gene (κB-GFP) that acts as a readout of NFκB signaling.
Jurkat cells bearing GOF E134G, C49Y, or G123D CARD11 had elevated baseline activation of NF-κB-GFP. MALT1 inhibitors (e.g., Compound 1.1 or 2.4) were incubated with the above engineered Jurkat cells.

[2] = target: T1, proteolytic function of MALT1 (cleavage of CYLD) (Homo sapiens, UniProt Q9UDY8); test: CYLD cleavage in Jurkat cells bearing GOF CARD11 (Example 6); type: cell-based; conditions: Jurkat cells with GOF E134G, C49Y or G123D CARD11; dose dependent in the range of about 100 nM to 10 μM
T1 construct: endogenous in cells; host or cells: Jurkat cells bearing GOF E134G, C49Y or G123D CARD11
T1 sequence (Q9UDY8 1-824): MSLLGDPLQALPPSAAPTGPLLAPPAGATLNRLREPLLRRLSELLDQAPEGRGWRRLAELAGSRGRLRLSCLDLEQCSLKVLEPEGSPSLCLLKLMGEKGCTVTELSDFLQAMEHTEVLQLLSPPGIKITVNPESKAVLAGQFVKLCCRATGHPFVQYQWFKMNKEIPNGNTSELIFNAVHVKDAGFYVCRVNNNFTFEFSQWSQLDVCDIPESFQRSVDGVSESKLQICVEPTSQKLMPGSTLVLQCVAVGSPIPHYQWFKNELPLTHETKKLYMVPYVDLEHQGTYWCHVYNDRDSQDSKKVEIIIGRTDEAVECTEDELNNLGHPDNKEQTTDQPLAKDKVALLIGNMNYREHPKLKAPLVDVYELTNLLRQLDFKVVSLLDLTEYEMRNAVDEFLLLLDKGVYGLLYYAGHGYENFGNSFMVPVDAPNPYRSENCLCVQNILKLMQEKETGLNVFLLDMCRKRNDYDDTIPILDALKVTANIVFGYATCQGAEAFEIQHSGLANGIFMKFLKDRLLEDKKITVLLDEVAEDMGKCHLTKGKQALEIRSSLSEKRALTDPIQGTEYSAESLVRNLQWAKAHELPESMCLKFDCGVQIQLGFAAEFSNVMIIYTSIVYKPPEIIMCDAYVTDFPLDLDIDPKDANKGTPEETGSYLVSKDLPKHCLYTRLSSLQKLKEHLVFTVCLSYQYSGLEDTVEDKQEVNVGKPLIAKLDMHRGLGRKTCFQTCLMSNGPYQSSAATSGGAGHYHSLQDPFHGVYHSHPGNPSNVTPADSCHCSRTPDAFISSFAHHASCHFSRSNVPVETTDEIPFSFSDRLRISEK
Method: Jurkat cells bearing GOF E134G, C49Y, or G123D CARD11 were also assessed for cleavage of CYLD as a measure of the proteolytic function of MALT1. In the absence of inhibitors, the Jurkat cells with the GOF CARD11 mutants cleaved CYLD.

[3] = system: T cells that lack endogenous CARD11 and bear transfected CARD11 gain-of-function mutations; κB-GFP readout of NFκB signaling; test: NF-κB-GFP reporter in T cells transfected with CARD11 gain-of-function cDNA (Example 1); type: cell-based; conditions: T cells with CARD11 GOF variants; baseline and after anti-CD3 or PMA/ionomycin; flow cytometry
Method: MALT1 inhibitors (e.g., Compounds 1.1, 1.26, 1.27, 1.30, 1.33, 2.1, and/or 2.4) are incubated with T cells that lack endogenous CARD11 and bear transiently transfected CARD11 cDNA bearing gain-of-function mutations. An optional variation is co-transfecting 50:50 a copy of the wildtype CARD11 gene with the CARD11 gain of function mutant. The T-cells include a reporter gene (κB-GFP) that acts as a readout of NFκB signaling. The expression of NF-κB-GFP at baseline and after anti-CD3, or PMA/ionomycin stimulation is measured.
T-Cells bearing GOF variants of CARD11 have elevated baseline activation of NF-κB-GFP, and higher still after stimulation, which is assessed by flow cytometry.

patients with BENTA = test: Clinical trial of MALT1 inhibitors for BENTA (Example 2); type: in vivo; conditions: oral once daily, 25 mg/day up to 1000 mg/day
Method: MALT1 inhibitors (e.g., Compounds 1.1, 1.26, 1.27, 1.30, 1.33, 2.1, and/or 2.4) are used to treat patients with BENTA. MALT1 inhibitors (e.g., Compounds 1.1, 1.26, 1.27, 1.30, 1.33, 2.1, and/or 2.4) are formulated in an oral dosage form and administered to patients once daily at a starting dose of 25 mg/day. Alternatively, the daily dose is escalated from 25 mg/day to 1000 mg/day.

[4] = system: mTor pathway (e.g., mTORc1 and/or mTORc2) in primary T cells; test: mTor pathway activation in stimulated primary T cells, pAkt/pS6 staining (Example 3); type: cell-based; conditions: primary T cells after anti-CD3/anti-CD28 activation
Method: Primary T cells are stimulated to activation and cultured in the presence of IL-2. For stimulation, cells are preincubated with anti-CD3F and anti-CD28 on ice and washed. Cells were stimulated by crosslinking the anti-CD3 antibody with a secondary antibody (e.g., anti-mouse IgG for 10 min) in complete T cell media and then fixed with pre-warmed fixation buffer. Cells are then washed with FACS buffer and permeabilized with permeabilization buffer pre-chilled to −20° C. and incubated for 30 min on ice. Cells are washed and then stained with the following antibodies or appropriate isotype controls anti-pAkt (Ser473) and anti-pS6 (Ser240/244).
MALT1 inhibitors (e.g., Compounds 1.1, 1.26, 1.27, 1.30, 1.33, 2.1, and/or 2.4) are incubated with the primary T cells after activation.

[5] = system: epithelial cells (e.g., HEK293 cells) bearing CARD14 gain-of-function mutations; κB-GFP readout of NFκB signaling; test: NF-κB-GFP reporter in epithelial cells transfected with CARD14 gain-of-function cDNA (Example 4); type: cell-based; conditions: epithelial cells with CARD14 GOF variants; flow cytometry
Method: MALT1 inhibitors (e.g., Compounds 1.1, 1.26, 1.27, 1.30, 1.33, 2.1, and/or 2.4) are incubated with epithelial cells (e.g., HEK293 cells) that lack endogenous CARD14 and bear transiently transfected CARD14 cDNA bearing gain-of-function mutations. The epithelial cells include a reporter gene (κB-GFP) that acts as a readout of NFκB signaling. The expression of NF-κB-GFP at baseline and after anti-CD3, or PMA/ionomycin stimulation is measured.
Epithelial cells bearing gain of function variants of CARD14 have elevated baseline activation of NF-κB-GFP, and higher still after stimulation, which is assessed by flow cytometry.

full-length human MALT1 = target: T2, full-length human MALT1 (Homo sapiens, UniProt Q9UDY8); test: MALT1 cleavage of HOIL1 (Example 5); type: biochemical; conditions: HOIL1 0.05 μg/μL with MALT1, 2 h at 37° C.; gel electrophoresis/immunoblot
T2 construct: Recombinant full-length human MALT1 protein was expressed and purified; made in house
T2 sequence (Q9UDY8 1-824): T1 sequence (Q9UDY8 1-824)
Method: Recombinant full-length human MALT1 protein was expressed and purified. C-terminal Myc-FLAG-tagged full-length human HOIL1 was obtained from Origene. HOIL1 protein (0.05 μg/μL) is incubated with different concentrations of MALT1 in assay buffer (200 mM Tris-HCl, 0.8 M Na citrate, 0.1 mM EGTA, 0.05% CHAPS, 1 mM DTT, pH 7.4) for 2 h at 37° C. Cleavage of HOIL1 was analyzed by gel electrophoresis using a 4-12% Bis-Tris SDS-polyacrylamide (PAGE) gradient gel (Life Technologies). The presence of a small fragment was confirmed by immunoblotting with an N-terminal antibody (anti-N-terminal HOIL1; HPA024185; Sigma). Total HOIL1 was observed using a C-terminal directed antibody (anti-FLAG, clone M2, Sigma). These assays are performed with both the cleavable HOIL1 and, as a negative control, a non-cleavable HOIL1 (where Lys is substituted for Arg165).

Q: `CO[C@@H](C)c1c(Nc2ccc([C@H](N(C)C(=O)C3CCS(=O)(=O)CC3)C(F)(F)F)cc2)cnc2nc(Cl)nn12` [Compound 1.1, N-[(1S)-1-[4-({2-chloro-7-[(1S)-1-methoxyethyl]-[1,2,4]triazolo[1,5-a]pyrimidin-6-yl}amino)phenyl]-2,2,2-trifluoroethyl]-N-methyl-1,1-dioxo-1λ^6-thiane-4-carboxamide] was tested. Which NF-κB-GFP expression [1] did it give?
A: reduced NF-κB-GFP expression in a dose dependent fashion

Q: And the CYLD cleavage [2]?
A: suppress this CYLD cleavage in a dose dependent manner

Q: And the NF-κB-GFP expression [3]?
A: lowered NF-κB-GFP expression

Q: And the BENTA symptoms (patients with BENTA)?
A: amelioration of their BENTA symptoms

Q: And the “Jun/Fos, NF-κB and/or mTor pathway activation in patients” value (patients with BENTA)?
A: reduced Jun/Fos, and/or NF-κB and/or a mTor pathway (e.g., mTORc1 and/or mTORc2) activation

Q: What about the “mTor pathway (mTORc1 and/or mTORc2) activation” value [4] of the same molecule?
A: suppress mTor pathway (e.g., mTORc1 and/or mTORc2) activation

Q: What about the NF-κB-GFP expression [5] of the same molecule?
A: lowered NF-κB-GFP expression

Q: And the “cleavage of HOIL1” value (full-length human MALT1)?
A: cleavage of HOIL1 is reduced

Q: Which results are given for `CN(C(=O)[C@H]1CC[C@H](C(=O)O)CC1)[C@@H](c1ccc(Nc2cnn(-c3ccccn3)c2C(F)(F)F)cc1)C(F)(F)F` [Compound 2.4]?
A: NF-κB-GFP expression [1]: reduced NF-κB-GFP expression in a dose dependent fashion; CYLD cleavage [2]: suppress this CYLD cleavage in a dose dependent manner; NF-κB-GFP expression [3]: lowered NF-κB-GFP expression; BENTA symptoms (patients with BENTA): amelioration of their BENTA symptoms; Jun/Fos, NF-κB and/or mTor pathway activation in patients (patients with BENTA): reduced Jun/Fos, and/or NF-κB and/or a mTor pathway (e.g., mTORc1 and/or mTORc2) activation; mTor pathway (mTORc1 and/or mTORc2) activation [4]: suppress mTor pathway (e.g., mTORc1 and/or mTORc2) activation; NF-κB-GFP expression [5]: lowered NF-κB-GFP expression; cleavage of HOIL1 (full-length human MALT1): cleavage of HOIL1 is reduced
